Data taken from patent publication US12029744B2, “Bicyclic heteroaryl derivatives as ectonucleotide pyrophosphatase phosphodiesterase 1 inhibitors” (Riboscience LLC, priority 2019, dated 2024).

Tests used:
[1] = system: HGS tumor model; experiment: Anti-tumor activity in HGS tumor model; format: in vivo; conditions: animals treated with 20/kg of compound, day 42 after inoculation (vehicle group 645)
Excerpt: […]

[2] = molecular target: T1, ENPP1 (Homo sapiens, UniProt P22413); experiment: Measurement of pNP-TMP hydrolysis by ENPP1 (enzyme activity assay, absorbance at 405 nm); format: biochemical; conditions: substrate pNP-TMP 500 μM, KM 232 μM; Ki from IC50 by Cheng-Prusoff; read-out: Ki (pNP-TMP)
T1 sequence (P22413 1-925): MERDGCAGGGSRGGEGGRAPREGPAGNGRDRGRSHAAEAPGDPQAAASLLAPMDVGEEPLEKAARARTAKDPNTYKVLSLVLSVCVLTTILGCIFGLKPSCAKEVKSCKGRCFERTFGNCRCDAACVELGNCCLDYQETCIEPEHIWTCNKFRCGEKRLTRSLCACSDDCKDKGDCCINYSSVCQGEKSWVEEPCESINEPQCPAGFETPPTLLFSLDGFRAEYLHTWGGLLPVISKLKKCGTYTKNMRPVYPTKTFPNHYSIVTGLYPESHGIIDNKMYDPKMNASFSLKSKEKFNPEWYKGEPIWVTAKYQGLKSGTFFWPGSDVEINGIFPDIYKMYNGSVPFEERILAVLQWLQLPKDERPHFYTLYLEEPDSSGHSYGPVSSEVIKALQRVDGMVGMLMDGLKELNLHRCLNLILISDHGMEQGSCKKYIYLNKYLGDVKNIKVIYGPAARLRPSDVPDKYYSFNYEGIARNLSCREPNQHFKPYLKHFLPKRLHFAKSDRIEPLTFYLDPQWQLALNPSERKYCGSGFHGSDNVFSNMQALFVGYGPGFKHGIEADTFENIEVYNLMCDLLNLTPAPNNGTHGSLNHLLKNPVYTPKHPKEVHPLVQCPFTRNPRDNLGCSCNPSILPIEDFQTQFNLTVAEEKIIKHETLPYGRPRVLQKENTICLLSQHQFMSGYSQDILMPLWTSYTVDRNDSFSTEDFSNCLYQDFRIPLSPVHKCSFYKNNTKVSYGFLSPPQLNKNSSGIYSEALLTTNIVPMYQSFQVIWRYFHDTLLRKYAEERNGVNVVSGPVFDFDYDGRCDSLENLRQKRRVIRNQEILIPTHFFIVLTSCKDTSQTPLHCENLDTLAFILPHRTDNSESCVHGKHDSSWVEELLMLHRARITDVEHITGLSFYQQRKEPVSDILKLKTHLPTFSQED
Protocol: Measurement of pNP-TMP Hydrolysis by ENPP1
p-Nitrophenyl thymidine 5′-monophosphate (pNP-TMP) is a synthesized substrate for ENPP1. The ENPP1 enzyme activity assay with pNP-TMP substrate was conducted as follows:
Incubation of ENPP1 with compounds was set at 25° C. for 10 min. […] For each compound dilution, wells with assay buffer (50 mM Tris-HCl, pH8.8, 250 mM NaCl, 0.1 mg/ml BSA, 1% DMSO) only but no ENPP1 were included as controls for subtraction of test compound derived absorbance at 405 nm.
Absorbance at 405 nm was recorded immediately in kinetic mode by PerkinElmer 2300 Enspire multimode plate reader.
For each inhibitor, the specific ENPP1 activity was calculated using the following equation: ENPP1 activity (pmol/min/μg)=Adjusted Vmax (OD405 nm/min)×conversion factor (pmol/OD405 nm)/amount of enzyme (μg)
Adjusted Vmax=V0×(Km+(S))/(S).
V0=(OD405 nm with ENPP1−OD405 nm ENPP1 blank)/minutes. OD405 nm was plotted, with blank subtracted, against time (minutes), the initial linear rate is V0. […]
The slope is the conversion factor. The percent ENPP1 activity for each sample was calculated using the following equation: % enzyme activity=sample enzyme activity/MAX Activity×100%.
To determine the IC50 for each compound, compound concentration values and percent enzyme activity values were inserted into GraphPad Prism (GraphPad Prism version 7.0 for Windows, GraphPad Software, La Jolla California USA, www.graphpad.com), and Prism's Transform analysis was used to convert the x-axis values (compound concentration) to logarithms. A sigmoidal variable slope nonlinear regression analysis was performed using the following equation: Y=Bottom+(Top−Bottom)/(1+10^[…])).

| Compound | tumor size [1] [mm3] | Ki [2] [µM] |
| --- | --- | --- |
| C=CC(=O)N1CCN(CCCn2c(=O)c(-c3c(Cl)c(OC)cc(OC)c3Cl)cc3cnc(NC)nc32)CC1 [8-(3-(4-acryloylpiperazin-1-yl)propyl)-6-(2,6-dichloro-3,5-dimethoxyphenyl)-2-(methylamino)pyrido[2,3-d]pyrimidin-7(8H)-one] | 55 | – |
| CC(C)c1cc2c(O)nccc2n1Cc1ccc(B(O)O)cc1 [Compound 107, 4-((4-hydroxy-2-isopropylpyrrolo[3,2-c]pyridin-1-yl)methyl)phenylboronic acid] | – | < 0.1 |
| OB(O)c1ccc(Cn2cnc3nc(O)ccc32)cc1 [Compound 127] | – | < 0.01 |
| COc1cccc2c1nc(C)n2Cc1ccc(B(O)O)cc1 [Compound 95, 4-((4-methoxy-2-methyl-1,3-benzodiazol-1-yl)methyl) phenylboronic acid] | – | < 0.1 |
| NC(=O)c1ccc2c(ccn2Cc2ccc(P(=O)(O)O)cc2)c1 [Compound 142, 4-((5-carbamoylindol-1-yl)methyl)phenylphosphonic acid] | – | < 1 |
